How the values were obtained:
Assay type in all cases: in vivo
kochia (Kochia scoparia) [1] = experiment: Test A preemergence, visual plant response rating; conditions: for Kochia plant response rating: 125 g ai/ha, preemergence, 0 to 100 scale, 0 no effect, 100 complete control; for Kochia plant response rating (0 to 100 scale): approx. 10 days
Method in brief: (§1)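 Ratings use a 0–100 visual scale (100 = complete control) against untreated controls, scored about 10 days after greenhouse treatment. Test chemicals were formulated in surfactant-containing non-phytotoxic solvent and applied either as soil spray after planting (preemergence) or onto one- to two-leaf, 2–10 cm plants (postemergence).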

[2] = tested on: ragweed (common ragweed, Ambrosia elatior); experiment: Test A preemergence, visual plant response rating; conditions: for Ragweed plant response rating: 125 g ai/ha, preemergence, 0 to 100 scale, 0 no effect, 100 complete control; for Ragweed plant response rating (0 to 100 scale): approx. 10 days
Method in brief: as §1

[3] = tested on: Italian ryegrass (Lolium multiflorum); experiment: Test A preemergence, visual plant response rating; conditions: for Ryegrass, Italian plant response rating: 125 g ai/ha, preemergence, 0 to 100 scale, 0 no effect, 100 complete control; for Ryegrass, Italian plant response rating (0 to 100 scale): approx. 10 days
Method in brief: as §1

[4] = tested on: foxtail, green (green foxtail, Setaria viridis); experiment: Test A preemergence, visual plant response rating; conditions: for Foxtail, Green plant response rating: 125 g ai/ha, preemergence, 0 to 100 scale, 0 no effect, 100 complete control; for Foxtail, Green plant response rating (0 to 100 scale): approx. 10 days
Method in brief: as §1

[5] = tested on: pigweed (Amaranthus retroflexus); experiment: Test A preemergence, visual plant response rating; conditions: for Pigweed plant response rating: 125 g ai/ha, preemergence, 0 to 100 scale, 0 no effect, 100 complete control; for Pigweed plant response rating (0 to 100 scale): approx. 10 days
Method in brief: as §1

[6] = tested on: barnyardgrass (Echinochloa crus-galli); experiment: Test A preemergence, visual plant response rating; conditions: for Barnyardgrass plant response rating: 125 g ai/ha, preemergence, 0 to 100 scale, 0 no effect, 100 complete control; for Barnyardgrass plant response rating (0 to 100 scale): approx. 10 days
Method in brief: as §1

[7] = tested on: ducksalad (Heteranhera limosa); experiment: Test B flooded paddy test, visual plant response rating; conditions: 250 g ai/ha, Flood, applied to paddy water, 2-leaf stage, evaluated after 13 to 15 days
Method in brief: (§2)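 Test pots are flooded 3 cm above the soil at treatment, and the test substance is introduced into this standing water. After keeping the flood level and growing plants, treated at the 2-leaf stage, for 13 to 15 days under glass, injury is assessed visually versus controls.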

rice (Oryza sativa) = experiment: as above; conditions: 250 g ai/ha, Flood, applied to paddy water, 2-leaf stage, evaluated after 13 to 15 days
Method in brief: as §2

[8] = tested on: barnyardgrass (Echinochloa crus-galli); experiment: as above; conditions: 250 g ai/ha, Flood, applied to paddy water, 2-leaf stage, evaluated after 13 to 15 days
Method in brief: as §2

[9] = tested on: sedge, umbrella (small-flower umbrella sedge, Cyperus difformis); experiment: as above; conditions: 250 g ai/ha, Flood, applied to paddy water, 2-leaf stage, evaluated after 13 to 15 days
Method in brief: as §2

kochia (Kochia scoparia) [10] = experiment: Test A postemergence, visual plant response rating; conditions: for Kochia plant response rating (0 to 100 scale): 500 g ai/ha, postemergence, 0 is no effect, 100 is complete control; for Kochia plant response rating: Postemergence, 125 g ai/ha, 0 to 100 scale (0 no effect, 100 complete control)
Method in brief: as §1

[11] = tested on: ragweed (common ragweed, Ambrosia elatior); experiment: Test A postemergence, visual plant response rating; conditions: for Ragweed plant response rating (0 to 100 scale): 500 g ai/ha, postemergence, 0 is no effect, 100 is complete control; for Ragweed plant response rating: Postemergence, 125 g ai/ha, 0 to 100 scale (0 no effect, 100 complete control)
Method in brief: as §1

[12] = tested on: Italian ryegrass (Lolium multiflorum); experiment: Test A postemergence, visual plant response rating; conditions: for Ryegrass, Italian plant response rating: 125 g ai/ha, 0 to 100 scale (0 no effect, 100 complete control)
Method in brief: as §1

[13] = tested on: wheat (Triticum aestivum); experiment: Test A postemergence, visual plant response rating; conditions: for Wheat plant response rating: 0 to 100 scale (0 no effect, 100 complete control)
Method in brief: as §1

[14] = tested on: foxtail, green (green foxtail, Setaria viridis); experiment: Test A postemergence, visual plant response rating; conditions: for Foxtail, Green plant response rating (0 to 100 scale): 500 g ai/ha, postemergence, 0 is no effect, 100 is complete control; for Foxtail, Green plant response rating: Postemergence, 125 g ai/ha, 0 to 100 scale (0 no effect, 100 complete control)
Method in brief: as §1

[15] = tested on: pigweed (Amaranthus retroflexus); experiment: Test A postemergence, visual plant response rating; conditions: for Pigweed plant response rating (0 to 100 scale): 500 g ai/ha, postemergence, 0 is no effect, 100 is complete control; for Pigweed plant response rating: Postemergence, 125 g ai/ha, 0 to 100 scale (0 no effect, 100 complete control)
Method in brief: as §1

[16] = tested on: galium (catchweed bedstraw, Galium aparine); experiment: Test A postemergence, visual plant response rating; conditions: for Galium plant response rating (0 to 100 scale): 500 g ai/ha, postemergence, 0 is no effect, 100 is complete control; for Galium plant response rating: Postemergence, 125 g ai/ha, 0 to 100 scale (0 no effect, 100 complete control)
Method in brief: as §1

[17] = tested on: barnyardgrass (Echinochloa crus-galli); experiment: Test A postemergence, visual plant response rating; conditions: for Barnyardgrass plant response rating (0 to 100 scale): 500 g ai/ha, postemergence, 0 is no effect, 100 is complete control; for Barnyardgrass plant response rating: Postemergence, 125 g ai/ha, 0 to 100 scale (0 no effect, 100 complete control)
Method in brief: as §1

[18] = tested on: blackgrass (Alopecurus myosuroides); experiment: Test A postemergence, visual plant response rating; conditions: for Blackgrass plant response rating (0 to 100 scale): 500 g ai/ha, postemergence, 0 is no effect, 100 is complete control; for Blackgrass plant response rating: Postemergence, 125 g ai/ha, 0 to 100 scale (0 no effect, 100 complete control)
Method in brief: as §1

corn (Zea mays) = experiment: Test A postemergence, visual plant response rating; conditions: for Corn plant response rating (0 to 100 scale): 500 g ai/ha, postemergence, 0 is no effect, 100 is complete control; for Corn plant response rating: Postemergence, 125 g ai/ha, 0 to 100 scale (0 no effect, 100 complete control)
Method in brief: as §1

[19] = 500 g ai/ha, postemergence, 0 is no effect, 100 is complete control
[20] = Postemergence, rate not given, approx. 10 days

Row | Compound | Kochia plant response rating (0 to 100 scale) (kochia (Kochia scoparia) [1]; 500 g ai/ha Preemergence) | Ragweed plant response rating (0 to 100 scale) ([2]; 500 g ai/ha Preemergence) | Ryegrass, Italian plant response rating (0 to 100 scale) ([3]; 500 g ai/ha Preemergence) | Foxtail, Green plant response rating (0 to 100 scale) ([4]; 500 g ai/ha Preemergence) | Pigweed plant response rating (0 to 100 scale) ([5]; 500 g ai/ha Preemergence) | Barnyardgrass plant response rating (0 to 100 scale) ([6]; 500 g ai/ha Preemergence) | Plant response rating, Ducksalad (0 to 100 scale, 0 is no effect, 100 is complete control) [7] | Plant response rating, Rice (0 to 100 scale, 0 is no effect, 100 is complete control) (rice (Oryza sativa)) | Plant response rating, Barnyardgrass (0 to 100 scale, 0 is no effect, 100 is complete control) [8] | Plant response rating, Sedge, Umbrella (0 to 100 scale, 0 is no effect, 100 is complete control) [9] | Kochia plant response rating (0 to 100 scale) (kochia (Kochia scoparia) [10]) | Kochia plant response rating (kochia (Kochia scoparia) [10]) | Ragweed plant response rating (0 to 100 scale) [11] | Ragweed plant response rating [11] | Ryegrass, Italian plant response rating (0 to 100 scale) [12, 19] | Foxtail, Green plant response rating (0 to 100 scale) [14] | Foxtail, Green plant response rating [14] | Pigweed plant response rating (0 to 100 scale) [15] | Pigweed plant response rating [15] | Galium plant response rating (0 to 100 scale) [16] | other results
1 | CON=C(c1cccc(Cl)c1)c1c(O)c(C)n[nH]c1=O (mixture of isomers) [Compound 143] | 10 | 0 | 50 | 80 | 0 | 30 | 0 | 0 | 0 | 0 | 20 | 0 | 0 | 0 | 60 | 40 | 20 | 20 | 0 | 0 | Kochia plant response rating (kochia (Kochia scoparia) [1]): 0; Ragweed plant response rating [2]: 0; Ryegrass, Italian plant response rating [3]: 20; Foxtail, Green plant response rating [4]: 30; Pigweed plant response rating [5]: 0; Barnyardgrass plant response rating [6]: 0; Ryegrass, Italian plant response rating (0 to 100 scale) [12, 20]: 20; Wheat plant response rating ([13]; Postemergence, 500 g ai/ha): 20; Wheat plant response rating (0 to 100 scale) ([13]; Postemergence, approx. 10 days): 0; Galium plant response rating [16]: 0; Barnyardgrass plant response rating (0 to 100 scale) [17]: 40; Barnyardgrass plant response rating [17]: 10; Blackgrass plant response rating (0 to 100 scale) [18]: 40; Blackgrass plant response rating [18]: 10; Corn plant response rating (0 to 100 scale) (corn (Zea mays)): 20; Corn plant response rating (corn (Zea mays)): 0
2 | CCO/N=C(\c1cccc(C)c1C)c1c(O)c(C)nn(C)c1=O [Compound 25] | 0 | 90 | 30 | 60 | 40 | 0 | 0 | 0 | 0 | 0 | 10 | 0 | 40 | 20 | 40 | 10 | 0 | 50 | 40 | 20 | Kochia plant response rating (0 to 100 scale) (kochia (Kochia scoparia) [1]; 125 g ai/ha Preemergence): 0; Ragweed plant response rating (0 to 100 scale) ([2]; 125 g ai/ha Preemergence): 30; Ryegrass, Italian plant response rating (0 to 100 scale) ([3]; 125 g ai/ha Preemergence): 10; Foxtail, Green plant response rating (0 to 100 scale) ([4]; 125 g ai/ha Preemergence): 0; Pigweed plant response rating (0 to 100 scale) ([5]; 125 g ai/ha Preemergence): 90; Barnyardgrass plant response rating (0 to 100 scale) ([6]; 125 g ai/ha Preemergence): 0; Ryegrass, Italian plant response rating ([12]; Postemergence): 10; Wheat plant response rating (0 to 100 scale) [13, 19]: 0; Wheat plant response rating ([13]; Postemergence, 125 g ai/ha): 0; Galium plant response rating [16]: 20; Barnyardgrass plant response rating (0 to 100 scale) [17]: 30; Barnyardgrass plant response rating [17]: 0; Blackgrass plant response rating (0 to 100 scale) [18]: 40; Blackgrass plant response rating [18]: 0; Corn plant response rating (0 to 100 scale) (corn (Zea mays)): 0; Corn plant response rating (corn (Zea mays)): 0
3 | CON=C(c1ccccc1Cl)c1c(O)c(C)nn(C)c1=O (stereo in doubt) [Compound 29] | 10 | 90 | 70 | 50 | 20 | 50 | 0 | 0 | 0 | 0 | 30 | 10 | 70 | 60 | 90 | 20 | 0 | 50 | 40 | 80 | Kochia plant response rating (0 to 100 scale) (kochia (Kochia scoparia) [1]; 125 g ai/ha Preemergence): 0; Ragweed plant response rating (0 to 100 scale) ([2]; 125 g ai/ha Preemergence): 30; Ryegrass, Italian plant response rating (0 to 100 scale) ([3]; 125 g ai/ha Preemergence): 20; Foxtail, Green plant response rating (0 to 100 scale) ([4]; 125 g ai/ha Preemergence): 30; Pigweed plant response rating (0 to 100 scale) ([5]; 125 g ai/ha Preemergence): 0; Barnyardgrass plant response rating (0 to 100 scale) ([6]; 125 g ai/ha Preemergence): 30; Ryegrass, Italian plant response rating ([12]; Postemergence): 30; Wheat plant response rating (0 to 100 scale) [13, 19]: 20; Wheat plant response rating ([13]; Postemergence, 125 g ai/ha): 20; Galium plant response rating [16]: 70; Barnyardgrass plant response rating (0 to 100 scale) [17]: 20; Barnyardgrass plant response rating [17]: 0; Blackgrass plant response rating (0 to 100 scale) [18]: 70; Blackgrass plant response rating [18]: 20; Corn plant response rating (0 to 100 scale) (corn (Zea mays)): 10; Corn plant response rating (corn (Zea mays)): 0
4 | CO/N=C(\c1cccc(S(C)(=O)=O)c1)c1c(O)c(C)nn(C)c1=O [Compound 148] | 0 | 0 | 0 | 0 | 0 | 0 | 0 | 0 | 0 | 0 | 0 | 0 | 0 | 0 | 0 | 0 | 0 | 0 | 0 | 0 | Kochia plant response rating (kochia (Kochia scoparia) [1]): 0; Ragweed plant response rating [2]: 0; Ryegrass, Italian plant response rating [3]: 0; Foxtail, Green plant response rating [4]: 0; Pigweed plant response rating [5]: 0; Barnyardgrass plant response rating [6]: 0; Ryegrass, Italian plant response rating (0 to 100 scale) [12, 20]: 0; Wheat plant response rating ([13]; Postemergence, 500 g ai/ha): 0; Wheat plant response rating (0 to 100 scale) ([13]; Postemergence, approx. 10 days): 0; Galium plant response rating [16]: 0; Barnyardgrass plant response rating (0 to 100 scale) [17]: 0; Barnyardgrass plant response rating [17]: 0; Blackgrass plant response rating (0 to 100 scale) [18]: 0; Blackgrass plant response rating [18]: 0; Corn plant response rating (0 to 100 scale) (corn (Zea mays)): 0; Corn plant response rating (corn (Zea mays)): 0
